The text below walks through data of US10407691B2 (priority 2014, dated 2019).

Assay [1] addresses T1, XA21 (Oryza sativa subsp. indica, UniProt Q1MX30). Type of assay: cell-based, Oryza sativa ssp. japonica.
For assay [2], the target named is T1, XA21. In words: cell-based. It is filed as cell-based, Oryza sativa ssp. japonica.
The target in assay [3] is T1, XA21. It is filed as cell-based, Oryza sativa ssp. japonica. The source holds these as a separate data set.
Assay [4] relates to Arabidopsis seedlings. Also on record: species or system Arabidopsis thaliana. To be noted: in vivo.
In a further assay the test system is tpst-1 seedlings. Also on record: species or system Arabidopsis thaliana. To be noted: in vivo.
The next assay relates to rice seedlings. Also on record: species or system Oryza sativa sp. japonica. Conditions: in vivo.
Assay [5] has as its system Arabidopsis seedlings. Also on record: species or system Arabidopsis thaliana. To be noted: in vivo. The source holds these as a separate data set.

“Also recorded” adds a separate entry of the source. Non-standard residues stand in square brackets, D forms with d. Residues, ends and D or L forms follow the SMILES beside them. sY = N[C@@H](Cc1ccc(OS(=O)(=O)O)cc1)C(=O)O

T1 sequence (Q1MX30 24-1025 limits assumed): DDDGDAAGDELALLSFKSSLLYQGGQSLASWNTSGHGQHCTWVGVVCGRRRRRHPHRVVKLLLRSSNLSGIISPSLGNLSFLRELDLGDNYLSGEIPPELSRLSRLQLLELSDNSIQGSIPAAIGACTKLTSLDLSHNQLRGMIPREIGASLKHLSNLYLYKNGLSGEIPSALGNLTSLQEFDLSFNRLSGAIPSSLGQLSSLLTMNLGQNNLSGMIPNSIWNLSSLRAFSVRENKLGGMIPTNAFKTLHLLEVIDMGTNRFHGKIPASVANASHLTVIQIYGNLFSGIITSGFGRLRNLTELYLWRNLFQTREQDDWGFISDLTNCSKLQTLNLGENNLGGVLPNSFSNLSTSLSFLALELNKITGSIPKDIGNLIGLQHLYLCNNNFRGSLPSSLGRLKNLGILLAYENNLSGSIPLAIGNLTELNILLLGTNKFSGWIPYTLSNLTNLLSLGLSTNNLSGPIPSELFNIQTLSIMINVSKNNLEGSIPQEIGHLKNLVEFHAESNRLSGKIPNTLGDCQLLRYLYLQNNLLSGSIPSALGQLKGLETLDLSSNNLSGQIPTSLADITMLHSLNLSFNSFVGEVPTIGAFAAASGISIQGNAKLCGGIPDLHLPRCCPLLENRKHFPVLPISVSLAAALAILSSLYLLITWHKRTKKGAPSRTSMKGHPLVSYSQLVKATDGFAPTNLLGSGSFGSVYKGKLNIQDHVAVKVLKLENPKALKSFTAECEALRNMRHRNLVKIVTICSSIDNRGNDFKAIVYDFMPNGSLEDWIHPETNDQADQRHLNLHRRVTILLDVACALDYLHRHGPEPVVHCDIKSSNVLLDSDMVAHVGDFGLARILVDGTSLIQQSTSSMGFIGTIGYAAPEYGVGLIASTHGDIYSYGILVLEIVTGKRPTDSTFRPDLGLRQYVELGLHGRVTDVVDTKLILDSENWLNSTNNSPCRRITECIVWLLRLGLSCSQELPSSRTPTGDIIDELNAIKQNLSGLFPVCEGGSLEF

For `CC(C)[C@H](NC(=O)[C@@H](N)Cc1c[nH]cn1)C(=O)NCC(=O)NCC(=O)NCC(=O)N[C@@H](CC(=O)O)C(=O)N[C@@H](Cc1ccc(OS(=O)(=O)O)cc1)C(=O)N1CCC[C@H]1C(=O)N1CCC[C@H]1C(=O)N1CCC[C@H]1C(=O)NCC(=O)N[C@@H](C)C(=O)N[C@@H](CC(N)=O)C(=O)N1CCC[C@H]1C(=O)N[C@@H](CCCCN)C(=O)N[C@@H](Cc1c[nH]cn1)C(=O)N[C@@H](CC(=O)O)C(=O)N1CCC[C@H]1C(=O)N1CCC[C@H]1C(=O)N1CCC[C@H]1C(=O)N[C@@H](CCCNC(=N)N)C(=O)O` [RaxX21-sY, HVGGGDY^SPPPGANPKHDPPPR] (H-HVGGGD[sY]PPPGANPKHDPPPR-OH), at XA21 [1], the defense gene expression entry was “significant RaxX21-sY-mediated upregulation of defense gene expression and ROS production; also recorded: activates gene expression”; the “defense gene induction (Os06g37224)” value was “induced ROS production and defense gene expression changes”; the “defense marker gene expression (Os04g10100, PR10b, Os12g36830, Os06g37224), temporal changes” value is “able to activate; also recorded: sufficient to activate XA21-mediated defense gene expression”. In addition, on XA21 [2], the ROS production entry is “significant RaxX21-sY-mediated upregulation of defense gene expression and ROS production; also recorded: induced ROS production and defense gene expression changes; also recorded: activates the production of ROS”; the “ROS production over 90 min” value is given as “triggered a ROS response characteristic of the XA21-mediated immune response”; the “XA21-mediated defense responses (ability to activate XA21-dependent signaling)” value (“XA21-mediated defense responses” below) is on record as “trigger XA21-mediated defense responses”; the “total ROS production over 3 h” value is “retained the ability to induce XA21-dependent signaling; also recorded: able to activate”. Moreover, the ethylene production result at XA21 [3] is reported as “able to activate”. For the same molecule, in the assay with Arabidopsis seedlings [4], the average root length is on record as 61 mm; the “dose dependent activity on root growth” value is listed as “effective at inducing root growth at concentrations in the low nanomolar range”; the root growth promotion result was “promoted root growth in a similar manner to that observed for AtPSY1; also recorded: promotes root growth in Arabidopsis and rice”; the root length entry was “statistically longer root lengths”. For the same molecule, the root growth rate entry in the assay on tpst-1 seedlings is listed as “increased root growth rate”. Moreover, in the assay on rice seedlings, the root growth entry is “significantly enhanced root growth; also recorded: promotes root growth in Arabidopsis and rice”; the root length result is on record as “significantly longer roots”. Besides, the “effect on elf18-triggered growth inhibition” value with Arabidopsis seedlings [5] is reported as “do not prevent elf18-triggered growth inhibition”.
One may read the EC50 as the midpoint of the concentration-response curve. A low value points to a more potent agent. For the molecule `CC(C)C[C@H](N)C(=O)N[C@@H](Cc1c[nH]c2ccccc12)C(=O)N[C@@H](CCCCN)C(=O)N[C@@H](Cc1c[nH]cn1)C(=O)N[C@H](C(=O)NCC(=O)NCC(=O)NCC(=O)N[C@@H](CC(=O)O)C(=O)N[C@@H](Cc1ccc(OS(=O)(=O)O)cc1)C(=O)N1CCC[C@H]1C(=O)N1CCC[C@H]1C(=O)N1CCC[C@H]1C(=O)NCC(=O)N[C@@H](C)C(=O)N[C@@H](CC(N)=O)C(=O)N1CCC[C@H]1C(=O)N[C@@H](CCCCN)C(=O)N[C@@H](Cc1c[nH]cn1)C(=O)N[C@@H](CC(=O)O)C(=O)N1CCC[C@H]1C(=O)N1CCC[C@H]1C(=O)N1CCC[C@H]1C(=O)N[C@@H](CCCNC(=N)N)C(=O)O)C(C)C` [RaxX24-sY], on XA21 [2], the 50% effective concentration (EC50) was ~30 nM, the “XA21-mediated defense responses” value is listed as “trigger XA21-mediated defense responses” and the “total ROS production over 3 h” value is on record as “confirmed”.
As for `CC(C)C[C@H](NC(=O)[C@H](CCCNC(=N)N)NC(=O)[C@H](CCC(N)=O)NC(=O)[C@H](CC(=O)O)NC(=O)[C@H](CC(C)C)NC(=O)[C@@H]1CCCN1C(=O)[C@H](CCC(=O)O)NC(=O)[C@@H]1CCCN1C(=O)[C@H](CCCNC(=N)N)NC(=O)CNC(=O)[C@@H](N)CCCCN)C(=O)N[C@@H](Cc1c[nH]c2ccccc12)C(=O)N[C@@H](CCCCN)C(=O)N[C@@H](Cc1c[nH]cn1)C(=O)N[C@H](C(=O)NCC(=O)NCC(=O)NCC(=O)N[C@@H](CC(=O)O)C(=O)N[C@@H](Cc1ccc(OS(=O)(=O)O)cc1)C(=O)N1CCC[C@H]1C(=O)N1CCC[C@H]1C(=O)N1CCC[C@H]1C(=O)NCC(=O)N[C@@H](C)C(=O)N[C@@H](CC(N)=O)C(=O)N1CCC[C@H]1C(=O)N[C@@H](CCCCN)C(=O)N[C@@H](Cc1c[nH]cn1)C(=O)N[C@@H](CC(=O)O)C(=O)N1CCC[C@H]1C(=O)N1CCC[C@H]1C(=O)N1CCC[C@H]1C(=O)N[C@@H](CCCNC(=N)N)C(=O)N[C@@H](CC(N)=O)C(=O)N1CCC[C@H]1C(=O)NCC(=O)N[C@@H](Cc1c[nH]cn1)C(=O)N[C@@H](Cc1c[nH]cn1)C(=O)O)C(C)C` [RaxX39-sY], the “defense gene expression (PR10b and Os06g37224)” value at XA21 [1] is reported as “triggers defense gene expression in an XA21-dependent manner; also recorded: activates XA21-mediated defense gene expression”. For the same molecule, the “XA21-mediated defense responses” value at XA21 [2] is recorded as “trigger XA21-mediated defense responses”.
“DY^SGDPSANPKHDPGVPPS [AtPSY1, reference compound]”: the “ROS production over 90 min” value at XA21 [2] was “failed to induce ROS production”. In the assay with Arabidopsis seedlings [4], the “dose dependent activity on root growth” value is “less active than RaxX21-sY and PSK”; the root growth result is “increased root growth in a similar manner to that observed for treatment of wild type Col-0 seedlings; also recorded: also responds”. Further, the root growth rate entry in the assay on tpst-1 seedlings is on record as “increased root growth rate”. The root growth result in the assay with rice seedlings is recorded as “significantly enhanced root growth”. In the assay on Arabidopsis seedlings [5], the “effect on elf18-triggered growth inhibition” value was “do not prevent elf18-triggered growth inhibition”.
As to “DY^SPAPGANPRHNPKRPPG [OsPSY1a, reference compound]”, at XA21 [2], the “ROS production over 90 min” value is on record as “failed to induce ROS production”.
As for DY^SPPPGANPKHDP [RaxX13-sY], the “ROS production over 90 min” value at XA21 [2] is given as “did not induce ROS production”. The root growth promotion entry in the assay with Arabidopsis seedlings [4] is “still capable of promoting root growth”. Moreover, the root growth result in the assay on rice seedlings is “still capable of promoting root growth”.
As to DY^SPPPGANPKHDPPPR [RaxX16-sY], on XA21 [2], the “ROS production over 90 min” value was “triggered a ROS response characteristic of the XA21-mediated immune response; also recorded: able to recognize”. The root growth promotion entry in the assay on Arabidopsis seedlings [4] is listed as “still capable of promoting root growth”. Also, the root growth result in the assay on rice seedlings is on record as “still capable of promoting root growth”.
HVGGGDYPPPGANPKHDPPPR [RaxX21-Y]: the ethylene production entry at XA21 [3] was “not”. Also, the “dose dependent activity on root growth” value with Arabidopsis seedlings [4] is on record as “promoted root growth, but was less active than the sulfated version”.
As for “KGRPEPLDQRLWKHVGGGDYPPPGANPKHDPPPRNPGHH [RaxX39-Y]”, on XA21 [1], the “defense gene expression (PR10b and Os06g37224)” value is “does not”.
For LWKHVGGGDYPPPGANPK [RaxX18-sY], on XA21 [2], the “ROS production dose response (activity)” value is “completely inactive”, the “XA21-mediated defense responses” value is recorded as “do not” and the “total ROS production over 3 h” value is “compromised in this activity”.
Consider “LWKHVGGGDY^SAPPGSNDRHDPPKP [RaxX24-Xcm-sY]”, for which, in the assay with Arabidopsis seedlings [4], the root growth promotion entry is recorded as “promoted root growth on Arabidopsis seedlings in a manner similar to that of RaxX21-sY”.
For “LWKHVGGGDY^SPPPGANTKHDPPPK [RaxX24-Xe-sY]”, the root growth promotion entry in the assay with Arabidopsis seedlings [4] is given as “promoted root growth on Arabidopsis seedlings in a manner similar to that of RaxX21-sY”.
Same read-out and setting: as for “LWKHVGGGDY^SPPSGPNTKHDPPPP [RaxX24-Xoc-sY]”, the entry is “promoted root growth on Arabidopsis seedlings in a manner similar to that of RaxX21-sY; also recorded: still capable of inducing root growth”.
For the molecule Y^SIY^STQ [PSK, reference compound], the “ROS production over 90 min” value at XA21 [2] was “failed to activate XA21-mediated immune response”. Further, in the assay with Arabidopsis seedlings [4], the “dose dependent activity on root growth” value is listed as “comparable”. Besides, the “effect on elf18-triggered growth inhibition” value in the assay on Arabidopsis seedlings [5] is on record as “attenuates elf18-mediated growth inhibition”.
